Entries after “also recorded” stand apart in the source; their conditions may differ. Read-outs that look alike come from different tables or passages of the source. Positions of bridges follow the written chain, without caps; N, C: chain ends. Residues, ends and D or L forms follow the SMILES beside them. No end group written: not given here.
Tests used:
[1] = tested on: U87MG glioblastoma cells; assay: Blocking of U87MG cell adhesion to fibronectin-coated plates; format: cell-based
Excerpt: (§1) The present engineered peptides may be used in a variety of ways. If the peptides are attached to a surface, they may be used to attract/recruit cells to grow on the surface. For example, the present peptides may be applied to prosthetic devices, implants, bone grafts, and the like to promote tissue growth and healing at the site. They may be attached to culture dishes and promote attachment and differentiation of cells in culture. In addition, the present engineered peptides may be used to modulate cell binding to selected integrins such as α5β1, αvβ3 and αvβ5, particularly αvβ3, by adding the peptides to a cell culture to prevent cells expressing these integrins from adhering to a substrate. […] Also, the present 2.5F, 2.5D and 1.5B peptides were tested for blocking adhesion of U87MG glioblastoma cells to fibronectin-coated plates.
(§2) In another experiment, the ability of engineered knottin peptides to block U87MG cell adhesion to vitronectin- and fibronectin-coated microtiter plates. Vitronectin is a natural ligand for several integrins, including αvβ3 and αvβ5. The RGD-containing peptides were all able to inhibit U87MG cell adhesion to vitronectin-coated plates in a dose-responsive manner. […] Fibronectin also binds to several integrins, (including αvβ3 and α5β1), but the α5β1 integrin receptor is generally selective for fibronectin.

[2] = tested on: U87MG glioblastoma cells; assay: Blocking of U87MG cell adhesion to vitronectin-coated plates; format: cell-based; settings: vitronectin-coated wells
Excerpt: as §1, §2
Whether the engineered AgRP peptides could block vitronectin-mediated adhesion to the U87MG cells was tested using an analogous assay. […] The AgRP peptides may not effectively block U87MG adhesion compared to the K562-αvβ3 cells because the αvβ5 integrins co-expressed on the surface of the U87MG cells could also contribute to vitronectin-mediated adhesion and compensate for the loss of αvβ3 integrin function.

[3] = tested on: K562-αvβ3 cells; assay: Inhibition of vitronectin-mediated adhesion of K562-αvβ3 cells; format: cell-based; settings: vitronectin-coated microtiter wells
Description: To determine whether the engineered AgRP peptides could inhibit cell adhesion mediated by vitronectin, the primary ligand for αvβ3 integrin, K562-αvβ3 cells were incubated with varying concentrations of peptides in microtiter wells coated with vitronectin to determine the ability of the peptides to inhibit cell adhesion. […] This difference may be a result of multivalent interactions between the cell surface αvβ3 integrins and the immobilized vitronectin, thereby making it more difficult for the peptides to compete.

[4] = target: αiibβ3 integrin (Homo sapiens, UniProt P05106+P08514); assay: Competition of 125I-echistatin to detergent-solubilized plate-coated integrin; format: binding; settings: 0.06 nM 125I echistatin, 5 nM and 50 nM peptide
Method in brief: (§3)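 Detergent-solubilized integrins were coated on plates. Displacement of 0.06 nM 125I-echistatin by unlabeled peptide was measured at 5 nM and 50 nM. Experiments were run in triplicate.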

[5] = target: T1, αvβ3 integrin (Homo sapiens, UniProt P05106+P06756); assay: as above; format: binding; settings: 0.06 nM 125I echistatin, 5 nM and 50 nM peptide
Method in brief: as §3

[6] = target: αvβ5 integrin (Homo sapiens, UniProt P06756+P18084); assay: as above; format: binding; settings: 0.06 nM 125I echistatin, 5 nM and 50 nM peptide
Method in brief: as §3

[7] = target: α5β1 integrin (Homo sapiens, UniProt P05556+P08648); assay: as above; format: binding; settings: 0.06 nM 125I echistatin, 5 nM and 50 nM peptide
Method in brief: as §3

[8] = target: T1, αvβ3 integrin; settings: cited from earlier work
[9] = target: T2, αvβ3 integrin on U87MG glioblastoma cells (Homo sapiens, UniProt P05106+P06756); assay: 125I-echistatin competition binding to U87MG glioblastoma cells; settings: read-out: IC50, competition with 125I-echistatin, U87MG tumor cells
T2 construct: host or cells: U87MG glioblastoma cells
Description: FIG. 9 is a graph showing normalized competition plotted against peptide concentration in an integrin-binding assay on U87MG glioblastoma cells.
U87MG glioblastoma cells, which express ˜10^5 αvβ3 integrin receptors per cell, were used for these studies. […] An EETI-based polypeptide with a scrambled RDG amino acid sequence, designated FN-RDG, served as a negative control.
Half-maximal inhibitory concentrations (IC50) […] of data measured on at least three separate days. Data for unlabeled and Cy5.5-labeled peptides are shown. Site-specific labeling of RGD miniproteins with a near-infrared optical imaging probe: The free N-terminal amine of our polypeptides was used for site-specific attachment of Cy5.5, a near infrared imaging probe.
An αvβ3 integrin receptor binding assay is performed to determine the relative affinities of the mock-PET tracers compared to their unlabeled polypeptides. Briefly, 2×10^5 U87MG glioblastoma cells are incubated with 0.06 nM ^125I-echistatin in integrin binding buffer (25 mM Tris-HCl, pH 7.4, 150 mM NaCl2 1 mM CaCl2 1 mM MgCl2, 1 mM MnCl2, 0.1% BSA), in the presence of increasing concentrations of mock-PET tracers at room temperature. After incubation for 3 h, cells are pelleted by centrifugation at 1500 RPM and washed three times in binding buffer to remove unbound ligands. The radioactivity remaining in the cell pellet is measured by γ counting. IC50 values are determined by plotting the % competition and using a four-point binding equation (Kaleidagraph) to fit the data.

[10] = tested on: U87MG tumor; assay: MicroPET imaging and biodistribution of radiolabeled peptides in U87MG tumor-bearing mice; format: in vivo, mouse; settings: radiolabeled peptides, U87MG tumor-bearing mice
Method in brief: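 Female athymic nude mice carrying subcutaneous U87MG xenografts (8–10 mm) received ~100 μCi 64Cu-DOTA peptides i.v. (tail vein); static microPET scans under 2% isoflurane. %ID/g obtained from ROIs on decay-corrected images assuming 1 g/mL density, without attenuation correction. Biodistribution measured by γ-counting of excised tissues, reported as %ID/g mean±SD.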

[11] = tested on: subcutaneous U87MG glioblastoma tumors; assay: In vivo optical imaging of Cy5.5-labeled peptides in U87MG xenograft mice; parameters: species or system mouse
Description: FIG. 8A is a series of 4 pictures showing in vivo imaging of Cy5.5-labeled polypeptides in mice. 1.5 nmol of Cy5.5-labeled EETI-RGD peptide 2.5D or other indicated peptide was injected by tail vein into U87MG glioblastoma xenograft mouse models and imaged at various time points post injection. Arrows indicate the position of tumors. […] Cy5.5-labeled FN-RDG negative control (bottom line, open squares) indicates background levels.
Whole-body imaging of subcutaneous mouse xenografts were imaged with the IVIS 200 system (Xenogen) and quantified with Living Image 2.50.1 software.

[12] = target: T1, αvβ3 integrin; assay: Yeast-displayed peptide binding to soluble αvβ3 integrin, flow cytometry; settings: yeast-displayed peptides
Description: The yeast display construct shown in FIG. 1A has the general orientation: Aga2-HA-engineered knottin—c-myc epitope, with the c-myc epitope at the carboxy terminus of the peptide. […] Bound integrin is detected with an anti-integrin antibody, labeled with FITC.
Below is a typical protocol to label a yeast library samples for sorting by flow cytometry (FACS): • 1. Want 2×10^6 cells, OD600 of […] • 2. Add 1 mL PBS/BSA (phosphate buffered saline containing 1 mg/mL bovine serum albumin) to wash cells • 3. Spin down cells 3 min at 8000 RPM • 4. Remove supernatant using vacuum • 5. Re-suspend in 40 μL PBS/BSA containing proper amount of integrin (100 nM [2.5 μL of stock αvβ3]; no anti-cmyc at this point) • 6. Incubate for 1.5 h at r.t (w/tumbling) • 7. Add 1:250 dilution of (chick anti-cmyc) to labeling solution • 8. […] Incubate 1 h at 4° C. (w/tumbling) • 10. Keep on ice after this step. • 11. Spin down cells 3 min at 8000 RPM, 4° C. and vacuum supernatant • 12. Repeat wash steps 2-4 • 13. Re-suspend in 40 μL PBS/BSA containing proper amount of secondary labels (secondary labeling is simultaneous) • i. Anti-integrin Ab (FITC conj): 1:25 dilution+Anti-chick (Alexa 555): 1:100 dilution • ii. Positive control: Anti-chick (Alexa 555): 1:100 dilution (for FACS compensation) • iii. Positive control: Anti-chick (Alexa 488): 1:100 dilution (for FACS compensation) • 14. Incubate on ice 30 min and keep in dark (lid on ice bucket) • 15. Spin down cells at 3 min at 8000 RPM, 4° C. and vacuum supernatant • 16. Repeat steps 2-4: Add 1 mL PBS/BSA, pellet cells, vacuum supernatant • 17. Leave pelleted cells on ice until use. Fluorescent Cell Sorting
Commercially available flow cytometers can measure fluorescence emissions at the single-cell level at four or more wavelengths, at a rate of approximately 50,000 cells per second (Ashcroft and Lopez, 2000). Typical flow cytometry data are shown in FIG. 4-7, in which yeast have been labeled with two different color fluorescent probes to measure protein expression levels and bound soluble ligand (in this case integrin receptor). A ‘diagonal’ population of cells results due to variation in protein expression levels on a per cell basis: cells that express more protein will bind more ligand. The equilibrium binding constant (Kd) can be determined by titration of soluble ligand, and the dissociation rate constant (koff) can be measured through competition binding of unlabeled ligand. With yeast, a monodispersity of tethered proteins exists over the cell surface, and soluble ligand are used for binding and testing, such that avidity effects are not observed, unlike other display methods using immobilized ligands. To date, the properties of most proteins expressed on the yeast cell surface mimic what is seen in solution in terms of stability and binding affinity (Bader et al., 2000; Feldhaus et al., 2003; Holler et al., 2000; VanAntwerp and Wittrup, 2000). See, also, Weaver-Feldhaus et al., “Directed evolution for the development of conformation-specific affinity reagents using yeast display,” Protein Engineering Design and Selection Sep. 26, 2005 18(11):527-536.
Cell sorting was carried out on a FACSVantage (BD Biosciences) multiparameter laser flow cytometer and cell sorter. Before sorting, fluorescent staining was carried out as described above, so that analysis of integrin binding and c-myc expression levels were detected, as described above. […]

ECESGPCCRNCKFLKEGTICKRARGDDMDDYCNGKTCDCPRNPHKGPAT (disulfide 2-11, 7-32, 8-37, 20-39 (inferred)) [Echistatin, echistatin]
blocking of U87MG cell adhesion to fibronectin, in words [1]: blocked adhesion; also recorded: able to block
IC50 [2]: 5.8 nM
IC50 [3]: 3.2 ± 2.7 nM
binding to αiibβ3 integrin, in words [4]: binds strongly; also recorded: bound strongly
binding to αvβ3 integrin, in words [5]: binds strongly; also recorded: bound strongly
binding to αvβ5 integrin, in words [6]: binds strongly; also recorded: bound strongly
binding to α5β1 integrin, in words [7]: binds strongly; also recorded: bound strongly
Kd [8]: 0.3 nM
IC50 ([9]; Cy5.5-labeled peptides (Cy5.5: Yes)): 2.6 ± 0.2 nM
IC50 ([9]; unlabeled peptides (Cy5.5: No)): 4.9 ± 1 nM

CC(C)C[C@@H]1NC(=O)[C@@H]2CSSC[C@@H](C(=O)NCC(=O)O)NC(=O)[C@H](Cc3ccccc3)NC(=O)CNC(=O)[C@H](CC(N)=O)NC(=O)[C@@H]3CCCN3C(=O)CNC(=O)[C@@H]3CSSC[C@H](NC(=O)[C@H](CO)NC(=O)[C@H](CO)NC(=O)[C@H](C)NC(=O)[C@@H]4CCCN4C(=O)[C@H](CO)NC(=O)[C@H](CC(=O)O)NC(=O)CNC(=O)[C@H](CCCNC(=N)N)NC(=O)CNC(=O)[C@H]([C@@H](C)O)NC(=O)[C@H](C(C)C)NC(=O)[C@@H](NC(=O)CN)CSSC[C@H](NC(=O)CNC(=O)[C@H](C)NC1=O)C(=O)N[C@@H](C(C)C)C(=O)N3)C(=O)N[C@@H](CCCCN)C(=O)N[C@@H](CCC(N)=O)C(=O)N[C@@H](CC(=O)O)C(=O)N[C@@H](CO)C(=O)N[C@@H](CC(=O)O)C(=O)N2 [RGD-EETI#3] (H-GCVTGRGDSPASSCKQDSDCLAGCVCGPNGFCG-OH; disulfide 2-24, 14-26, 20-32; N-terminus and C-terminus assumed)
PET tumor targeting / imaging signal, in words [10]: significantly weaker imaging signals
tumor uptake / imaging signal of Cy5.5-labeled peptide, in words [11]: significantly weaker imaging signals
integrin binding compared in words [12]: binds better than the 10th domain of fibronectin

— patent publication US9265845B2, “Imaging methods using engineered integrin binding peptides” (The Board of Trustees of the Leland Stanford Junior …, priority 2006, dated 2016)
